Measured values as given in publication PMC7178819, “6,7-Dimethoxy-2-phenethyl-1,2,3,4-tetrahydroisoquinoline amides and corresponding ester isosteres as multidrug resistance reversers” (Journal of Enzyme Inhibition and Medicinal Chemistry, 2020).

Legend:
[1] = test system: HT29, A549, HT29/DX and A549/DX cells; assay: Preliminary cytotoxicity of compounds alone in cancer cell lines; assay type: cell-based, human; details: all the tested concentrations, preliminary assays (data not shown)
Method: (§1) The co-administration assay with doxorubicin was performed in MDCK-MDR1, HT29, HT29/DX, A549 and A549/DX cells at 48 h. On day 1, 10,000 cells/well were seeded into 96-well plates in a volume of 100 µL of fresh medium. On day 2, the tested drug was added alone to the cells at different concentrations (ranging from 40 nM to 10 µM). On day 3, the medium was removed and the drug at the same concentrations was added alone and in co-administration with 10 µM doxorubicin to the cells. After the established incubation time with the tested drug, MTT (0.5 mg/mL) was added to each well, and after 3 − 4 h incubation at 37 °C, the supernatant was removed. The formazan crystals were solubilised using 100 µL of DMSO/EtOH (1:1), and the absorbance values at 570 and 630 nm were determined on the microplate reader HTX Synergy (Bio-Tek Instruments).
The efficacy of the compounds was next tested in cancer cell lines with various levels of P-gp, as the human adenocarcinoma colon cells (HT29) and non-small cell lung cancer cells (A549) displaying low amount of P-gp, and their resistant counterparts HT29/DX and A549/DX, with a high amount of P-gp[53]. In preliminary assays, we verified that 3 and 8 were not cytotoxic at all the tested concentration (data not shown).

[2] = test system: MDCK-MDR1 cells; assay: Co-administration assay with doxorubicin (MTT), MDCK-MDR1 cells; assay type: cell-based, canine; details: compound 10 µM + 10 µM doxorubicin, MDCK-MDR1
Method: as §1

SMILES | cytotoxicity, compound alone [1] | cytotoxicity, co-administration with doxorubicin [2]
COc1cc2c(cc1OC)CN(CCc1ccc(NC(=O)c3c(OC)c(OC)cc4ccccc34)cc1)CC2 [Compound 8, N-(4–(2-(6,7-dimethoxy-3,4-dihydroisoquinolin-2(1H)-yl)ethyl)phenyl)-2,3-dimethoxy-1-naphthamide] | not cytotoxic | around 50%
COc1ccc(C(=O)Nc2ccc(CCN3CCc4cc(OC)c(OC)cc4C3)cc2)c(OC)c1 [Compound 3, N-(4–(2-(6,7-dimethoxy-3,4-dihydroisoquinolin-2(1H)-yl)ethyl)phenyl)-2,4-dimethoxybenzamide] | not cytotoxic | 77%
